Test results as given in patent US20100267555A1, “Fungicidal mixtures II” (BASF SE, priority 2007, published 2010).
Where two headings read alike, the source gives them in different places.

Key:
Assay type in all cases: cell-based
[1] = tested on: Septoria tritici; experiment: Activity against leaf blotch on wheat caused by Septoria tritici in the microtiter test (Septtr); details: single active compound, day 7 after inoculation
[2] = tested on: Phytophthora infestans; details: single active compound, 7 days after inoculation
[3] = tested on: Pyricularia oryzae; experiment: microbe, parasite or virus in culture; details: 7 days after inoculation; for inhibition of growth at 4 ppm: read-out: Observed efficacy, single active compound, 4 ppm; for inhibition of growth at 16 ppm: read-out: Observed efficacy, single active compound, 16 ppm; for inhibition of growth at 0.063 ppm: read-out: Observed efficacy, single active compound, 0.063 ppm; for Observed efficacy: single active compound

Molecule Fc1ccc([C@]2(Cn3cncn3)O[C@H]2c2ccccc2Cl)cc1 (racemic) [Epoxiconazole, (2RS,3SR)-1-[3-(2-chlorophenyl)-2,3-epoxy-2-(4-fluorophenyl)propyl]-1H-1,2,4-triazole, reference compound] has an Observed efficacy ([1]; 0.063 ppm) of 50%.
With O=C(OCc1cccc(C(F)(F)F)c1)[C@H](c1ccc(F)cc1F)[C@@H](O)c1cccnc1 (stereo in doubt) [I.57-RS, 3-trifluoromethylphenylmethyl 3-hydroxy-2-(2,4-difluorophenyl)-3-(3-pyridyl)propanoate] the Observed efficacy ([1]; 4 ppm) was 26%, the Observed efficacy ([2]; 4 ppm) was 3% and the inhibition of growth at 4 ppm ([3]; Pyricularia oryzae, 168 h) was 0%. It also gave an inhibition of growth at 16 ppm ([3]; Pyricularia oryzae, 168 h) of 9%.
In the case of O=C(OCc1cccc(C(F)(F)F)c1)[C@H](c1cccs1)[C@@H](O)c1cccnc1 (stereo in doubt) [I.59-RS, 3-trifluoromethylphenylmethyl 3-hydroxy-2-(2-thienyl)-3-(3-pyridyl)propanoate], the Observed efficacy ([1]; 4 ppm) is reported as 14%, the Observed efficacy ([2]; 4 ppm) is reported as 11% and the inhibition of growth at 0.063 ppm ([3]; Pyricularia oryzae, 168 h) is reported as 1%. The inhibition of growth at 16 ppm ([3]; Pyricularia oryzae, 168 h) was 14% and the Observed efficacy ([3]; 4 ppm) was 0%.
Molecule COC(=O)Nc1nc2ccccc2[nH]1 [Carbendazim, methyl (1H-benzoimidazol-2-yl)-carbamate, reference compound] has an inhibition of growth at 0.25 ppm ([3]; Pyricularia oryzae, 168 h, read-out: Observed efficacy, single active compound, 0.25 ppm) of 19%.
N#Cc1c(Cl)c(Cl)c(Cl)c(C#N)c1Cl [Chlorothalonil, 2,4,5,6-tetrachloroisophthalonitrile, reference compound] showed an Observed efficacy ([2]; 0.25 ppm) of 16%.
For Cc1ccc(-c2c(Cl)nc(C#N)n2S(=O)(=O)N(C)C)cc1 [Cyazofamid, 4-chloro-2-cyano-N,N-dimethyl-5-(4-methylphenyl)-1H-imidazole-1-sulfonamide, reference compound], the Observed efficacy ([2]; 0.016 ppm) was 56%.
Cc1cc(C2CC2)nc(Nc2ccccc2)n1 [Cyprodinil, (4-cyclopropyl-6-methylpyrimidin-2-yl)phenylamine, reference compound] showed an inhibition of growth at 4 ppm ([3]; Pyricularia oryzae, 168 h) of 71%.
Work on CO/N=C(/C1=NOCCO1)c1ccccc1Oc1ncnc(Oc2ccccc2Cl)c1F [Fluoxastrobin, (E)-{2-[6-(2-chlorophenoxy)-5-fluoropyrimidin-4-yloxy]phenyl}(5,6-dihydro-1,4,2-dioxazin-3-yl)methanone O-methyloxime, reference compound] yielded an Observed efficacy ([1]; 0.25 ppm) of 58% and an inhibition of growth at 0.063 ppm ([3]; Pyricularia oryzae, 168 h) of 57%.
O=C(OCc1cccc(C(F)(F)F)c1)[C@H](c1ccc(F)cc1F)[C@@H](O)c1cccnc1 [I.57-RR, 3-trifluoromethylphenylmethyl 3-hydroxy-2-(2,4-difluorophenyl)-3-(3-pyridyl)propanoate] gave an Observed efficacy ([1]; 0.063 ppm) of 4% and an Observed efficacy ([2]; 0.016 ppm) of 0%.
O=C(OCc1cccc(C(F)(F)F)c1)[C@H](c1cccs1)[C@@H](O)c1cccnc1 [I.59-RR, 3-trifluoromethylphenylmethyl 3-hydroxy-2-(2-thienyl)-3-(3-pyridyl)propanoate] gave an Observed efficacy ([2]; 4 ppm) of 7%, an inhibition of growth at 4 ppm ([3]; Pyricularia oryzae, 168 h) of 0% and an Observed efficacy ([3]; 16 ppm) of 8%.
Work on CC(C)NC(=O)N1CC(=O)N(c2cc(Cl)cc(Cl)c2)C1=O [Iprodione, N-isopropyl-3-(3,5-dichlorophenyl)-2,4-dioxoimidazolidine-1-carboxamide, reference compound] yielded an inhibition of growth at 4 ppm ([3]; Pyricularia oryzae, 168 h) of 18%.
Molecule Cc1ccc(C(C)NC(=O)[C@@H](NC(=O)OC(C)C)C(C)C)cc1 (stereo partly drawn) [Iprovalicarb, isopropyl [(1S)-2-methyl-1-(1-p-tolylethylcarbamoyl)propyl]carbamate, reference compound] has an Observed efficacy ([2]; 0.25 ppm) of 9%.
With COC=C(C(=O)OC)c1ccccc1COc1cccc(C(F)(F)F)n1 [Picoxystrobin, methyl 3-methoxy-2-[2-(6-trifluoromethylpyridin-2-yloxymethyl)phenyl]acrylate, reference compound] the inhibition of growth at 0.063 ppm ([3]; Pyricularia oryzae, 168 h) was 49%.
For OC(Cc1ccccc1Cl)(Cn1nc[nH]c1=S)C1(Cl)CC1 (stereo not shown) [Prothioconazol, 2-[2-(1-chlorocyclopropyl)-3-(2-chlorophenyl)-2-hydroxypropyl]-2,4-dihydro-[1,2,4]triazole-3-thione, reference compound], the inhibition of growth at 4 ppm ([3]; Pyricularia oryzae, 168 h) was 15%.
